Activity calls are given as the source filed them. The rule behind the calls is not given here.

The subject of data set [1] is B16-F10. The experiment in a line: Antimelanogenic activity in mouse B16F10 cells assessed as inhibition of alpha-MSH-induced melanin production at 1 to 2 uM after 72 hrs by spectrophotometry. The class given is functional, cell-based.
In data set [2] the test system is B16-F10. The experiment in a line: Inhibition of CREB phosphorylation in alpha-MSH-induced mouse B16F10 cells at 1 uM after 30 mins to 2 hrs by Western blotting analysis. The class given is cell-based.
Data set [3] relates to B16-F10. The experiment in a line: Antimelanogenic activity in mouse B16F10 cells assessed as inhibition of alpha-MSH-induced secreted melanin production after 72 hrs by spectrophotometry. In kind it is functional, cell-based.
In data set [4] the test system is B16-F10. Kind of data set: Antimelanogenic activity in mouse B16F10 cells assessed as inhibition of alpha-MSH-induced MITF nuclear translocation at 1 uM after 30 mins to 2 hrs by Western blotting analysis. The class given is functional, cell-based.
Data set [5] addresses T1, Microphthalmia-associated transcription factor (Mus musculus) (UniProt Q08874).
T1 sequence (whole entry): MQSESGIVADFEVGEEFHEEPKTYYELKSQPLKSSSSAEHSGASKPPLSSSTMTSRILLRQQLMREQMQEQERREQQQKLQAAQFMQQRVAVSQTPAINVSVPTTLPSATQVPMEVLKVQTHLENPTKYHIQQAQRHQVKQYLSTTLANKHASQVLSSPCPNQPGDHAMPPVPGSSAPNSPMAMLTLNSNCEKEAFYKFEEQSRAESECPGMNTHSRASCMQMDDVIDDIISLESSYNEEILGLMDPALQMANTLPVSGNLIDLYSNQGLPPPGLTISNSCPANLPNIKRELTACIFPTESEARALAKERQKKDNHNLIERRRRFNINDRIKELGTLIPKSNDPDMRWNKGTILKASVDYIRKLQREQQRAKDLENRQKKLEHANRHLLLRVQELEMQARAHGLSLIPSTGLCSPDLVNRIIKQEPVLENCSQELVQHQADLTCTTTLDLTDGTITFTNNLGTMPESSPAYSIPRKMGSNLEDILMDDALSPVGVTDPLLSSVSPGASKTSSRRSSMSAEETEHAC
Kind of data set: Inhibition of MITF binding to M-box region of tyrosinase promoter in alpha-MSH-induced mouse B16F10 cells at 1 uM after 24 hrs by Chromatin immunoprecipitation assay. In kind it is cell-based. To be noted: B16-F10.

Data set [6] has as its target T1, Microphthalmia-associated transcription factor (Mus musculus). Kind of data set: Inhibition of MITF in mouse B16F10 cells assessed as inhibition of alpha-MSH-induced tyrosinase promoter activity after 24 hrs by luciferase reporter gene assay. To be noted: B16-F10. The class given is cell-based.
The target in data set [7] is Glycogen synthase kinase-3 beta (Mus musculus) (UniProt Q9WV60). The experiment in a line: Inhibition of GSK-3beta phosphorylation in alpha-MSH-induced mouse B16F10 cells at 1 uM after 30 mins to 2 hrs by Western blotting analysis. The class given is cell-based. To be noted: B16-F10.
For data set [8], the target named is T1, Microphthalmia-associated transcription factor (Mus musculus). The experiment in a line: Inhibition of MITF binding to M-box region of TRP-2 promoter in alpha-MSH-induced mouse B16F10 cells at 1 uM after 24 hrs by Chromatin immunoprecipitation assay. The class given is cell-based. Particulars: B16-F10.
Data set [9] relates to B16-F10. Kind of data set: Antimelanogenic activity in mouse B16F10 cells assessed as inhibition of alpha-MSH-induced MITF mRNA expression at 1 uM after 30 mins to 2 hrs by RT-PCR analysis. In kind it is functional, cell-based.
For data set [10], the target named is T1, Microphthalmia-associated transcription factor (Mus musculus). Kind of data set: Inhibition of MITF in mouse B16F10 cells assessed as inhibition of alpha-MSH-induced TRP2 protein expression after 48 hrs by Western blotting analysis. The class given is cell-based. To be noted: B16-F10.
The target is the same in data set [11]. The experiment in a line: Inhibition of MITF in mouse B16F10 cells assessed as inhibition of alpha-MSH-induced TRP1 mRNA expression after 48 hrs by RT-PCR analysis. Particulars: B16-F10. In kind it is cell-based.
For data set [12], the target named is T2, Tyrosinase (Mus musculus) (UniProt P11344).
T2 sequence (whole entry): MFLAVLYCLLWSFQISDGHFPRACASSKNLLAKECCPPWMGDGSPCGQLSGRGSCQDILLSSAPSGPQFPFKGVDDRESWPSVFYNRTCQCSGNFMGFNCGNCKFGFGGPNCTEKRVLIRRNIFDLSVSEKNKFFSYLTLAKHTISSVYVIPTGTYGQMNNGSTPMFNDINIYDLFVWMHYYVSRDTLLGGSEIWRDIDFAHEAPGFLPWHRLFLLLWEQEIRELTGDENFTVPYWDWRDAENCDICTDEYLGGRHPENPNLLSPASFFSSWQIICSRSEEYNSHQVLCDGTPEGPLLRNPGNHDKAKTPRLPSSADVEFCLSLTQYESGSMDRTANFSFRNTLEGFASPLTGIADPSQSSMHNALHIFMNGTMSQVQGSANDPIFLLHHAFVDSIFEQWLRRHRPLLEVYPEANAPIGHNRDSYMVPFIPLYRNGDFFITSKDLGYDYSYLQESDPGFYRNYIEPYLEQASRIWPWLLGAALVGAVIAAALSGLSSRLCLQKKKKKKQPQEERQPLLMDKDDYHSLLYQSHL
The experiment in a line: Inhibition of tyrosinase in alpha-MSH-treated mouse B16F10 cells up to 100 uM after 72 hrs by L-DOPA oxidase assay. In kind it is cell-based. Particulars: B16-F10.

The target of data set [13] is T1, Microphthalmia-associated transcription factor (Mus musculus). Kind of data set: Inhibition of MITF in mouse B16F10 cells assessed as inhibition of alpha-MSH-induced TRP2 mRNA expression after 48 hrs by RT-PCR analysis. In kind it is cell-based. Particulars: B16-F10.
In data set [14] the target is RAC-alpha serine/threonine-protein kinase (Mus musculus) (UniProt P31750). Kind of data set: Inhibition of Akt phosphorylation in alpha-MSH-induced mouse B16F10 cells at 1 uM after 30 mins to 2 hrs by Western blotting analysis. The class given is cell-based. To be noted: B16-F10.
Data set [15] deals with B16-F10. The experiment in a line: Antimelanogenic activity in mouse B16F10 cells assessed as inhibition of alpha-MSH-induced MITF protein expression at 1 uM after 30 mins to 2 hrs by Western blotting analysis. In kind it is functional, cell-based.
The test system of data set [16] is B16-F10. Kind of data set: Antimelanogenic activity in mouse B16F10 cells assessed as inhibition of alpha-MSH-induced intracellular melanin production after 72 hrs by spectrophotometry. The class given is functional, cell-based.
The target of data set [17] is T1, Microphthalmia-associated transcription factor (Mus musculus). Kind of data set: Inhibition of MITF in mouse B16F10 cells assessed as inhibition of alpha-MSH-induced tyrosinase protein expression after 48 hrs by Western blotting analysis. The class given is cell-based. To be noted: B16-F10.
The test system of data set [18] is B16-F10. Kind of data set: Cytotoxicity against mouse B16F10 cells up to 2 uM after 72 hrs by MTT assay. In kind it is cell-based. Particulars: b16-f10, 72 h.
Data set [19] has as its target T2, Tyrosinase (Mus musculus). The experiment in a line: Inhibition of tyrosinase in alpha-MSH-treated mouse B16F10 cells assessed as reduction in L-DOPA oxidase activity at 0.5 to 2 uM after 72 hrs. In kind it is cell-based. Particulars: B16-F10.
For data set [20], the target named is T1, Microphthalmia-associated transcription factor (Mus musculus). Kind of data set: Inhibition of MITF binding to M-box region of TRP-1 promoter in alpha-MSH-induced mouse B16F10 cells at 1 uM after 24 hrs by Chromatin immunoprecipitation assay. The class given is cell-based. Particulars: B16-F10.
The target is the same in data set [21]. The experiment in a line: Inhibition of MITF in mouse B16F10 cells assessed as inhibition of alpha-MSH-induced TRP1 protein expression after 48 hrs by Western blotting analysis. The class given is cell-based. To be noted: B16-F10.
The target is the same in data set [22]. Kind of data set: Inhibition of MITF in mouse B16F10 cells assessed as inhibition of alpha-MSH-induced tyrosinase mRNA expression after 48 hrs by RT-PCR analysis. The class given is cell-based. Particulars: B16-F10.

Glycogen synthase kinase-3 beta (Mus musculus), sequence (Q9WV60 whole entry, looked up): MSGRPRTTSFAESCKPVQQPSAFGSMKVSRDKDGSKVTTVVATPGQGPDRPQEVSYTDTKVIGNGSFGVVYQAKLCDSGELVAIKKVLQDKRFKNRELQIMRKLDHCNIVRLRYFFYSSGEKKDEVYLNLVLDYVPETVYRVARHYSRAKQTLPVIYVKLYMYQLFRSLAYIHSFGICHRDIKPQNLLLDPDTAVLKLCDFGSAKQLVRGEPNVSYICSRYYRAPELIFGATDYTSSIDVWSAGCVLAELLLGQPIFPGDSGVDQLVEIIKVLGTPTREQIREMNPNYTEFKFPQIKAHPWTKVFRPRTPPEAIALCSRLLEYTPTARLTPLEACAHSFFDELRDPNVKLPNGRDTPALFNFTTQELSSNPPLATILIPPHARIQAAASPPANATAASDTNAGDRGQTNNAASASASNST
RAC-alpha serine/threonine-protein kinase (Mus musculus), sequence (P31750 whole entry): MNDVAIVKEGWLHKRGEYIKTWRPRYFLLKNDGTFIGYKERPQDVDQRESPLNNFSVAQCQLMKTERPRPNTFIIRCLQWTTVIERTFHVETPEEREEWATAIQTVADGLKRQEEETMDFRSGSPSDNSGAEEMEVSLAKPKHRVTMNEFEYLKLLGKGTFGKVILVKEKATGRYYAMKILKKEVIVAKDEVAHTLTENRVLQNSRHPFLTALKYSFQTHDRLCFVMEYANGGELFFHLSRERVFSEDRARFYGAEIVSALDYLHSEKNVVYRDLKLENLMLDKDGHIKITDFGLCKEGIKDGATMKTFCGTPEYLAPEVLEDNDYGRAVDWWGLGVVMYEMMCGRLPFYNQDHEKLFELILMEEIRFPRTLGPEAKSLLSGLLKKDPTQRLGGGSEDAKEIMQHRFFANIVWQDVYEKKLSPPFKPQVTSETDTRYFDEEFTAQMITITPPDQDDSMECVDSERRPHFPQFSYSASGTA

`O=C(O)/C=C/c1ccc(O)c(O)c1`: the inhibition entry in the data set on B16-F10 [1] was “inactive”.

Take `O=C(/C=C/c1ccccc1)OCCc1ccccc1`: in the data set with B16-F10 [1], the inhibition entry is “inactive”.

For `O=C(/C=C/c1ccc(O)c(O)c1)OCCc1ccccc1` [CAFFEIC ACID PHENETHYL ESTER], the inhibition entry (with B16-F10 [2]; in the data set on B16-F10 [4]; in data set [7]; in the data set with B16-F10 [9]; in data set [12]; in data set [14]) was “inactive” each time. For the same compound, in the data set with B16-F10 [15], the inhibition entry was “inactive”. The inhibition entry (in the data set on B16-F10 [3]; in data set [6]; in data set [10]; in data set [11]; in data set [13]; in the data set on B16-F10 [16]) was “Dose-dependent effect” each time. The inhibition entry in data set [17], in data set [21] and in data set [22] was “Dose-dependent effect” throughout. Besides, the inhibition result in data set [5], in data set [8], in data set [19] and in data set [20] was “Active” each time. The Activity result with B16-F10 [18] was “Non-toxic”.

As to `OCCc1ccccc1`, the inhibition result in the data set with B16-F10 [1] was “inactive”.
